From US20240150293A1, “SPIROCYCLOHEXANE DERIVATIVES, PHARMACEUTICAL COMPOSITIONS CONTAINING THEM AND THEIR USES AS ANTI-APOPTOTIC INHIBITORS” (LES LABORATOIRES SERVIER, priority 2021, published 2024)
Where two headings read alike, the source gives them in different places.

Assays:
[1] = biological target: Cy5-labelled Mcl1 (amino acids 171-321) C286S protein (UniProtKB Q07820) (Homo sapiens (Human), UniProt Q07820, C286S); assay: Inhibition of Mcl-1 by the fluorescence quenching assay (Example A, Method B); format: binding
Cy5-labelled Mcl1 (amino acids 171-321) C286S protein, sequence (Q07820 171-321 C286S): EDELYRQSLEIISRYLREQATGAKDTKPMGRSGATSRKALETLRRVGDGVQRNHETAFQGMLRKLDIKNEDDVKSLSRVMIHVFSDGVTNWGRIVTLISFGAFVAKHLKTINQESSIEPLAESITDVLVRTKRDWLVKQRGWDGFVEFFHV
Method in brief: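 Cy5-labelled Mcl1 171-321 C286S (1 nM) quenched by TQ5WS-labelled PUMA peptide (10, 20 or 400 nM); displacement raises fluorescence (Ex 620/Em 680 nm). Buffer 10 mM HEPES, 150 mM NaCl, 0.05% Tween 20, pH 7.4, 5% DMSO; 2 h at room temperature, 11-point curves, IC50 converted to Ki (cKi/eKi).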

[2] = tested on: NCI-H929 cell lines; assay: In vitro cytotoxicity, CellTiter-Glo (CTG) assay (Example B, Method B); format: cell-based; conditions: NCI-H929 cells, 48 h incubation, read-out: C50
Protocol: Cellular viability was monitored with the cell viability assay (Cell Titer-Glo®) on NCI-H929 cell lines. The CellTiter-Glo® (CTG) Luminescent Cell Viability Assay (from Promega) is a homogeneous method to determine the number of viable cells in culture based on quantitation of the ATP present, which signals the presence of metabolically active cells.
Concentration response of test compounds are performed with 10 mM stock solutions (DMSO), 11-points curve, in a 384-well compound plate. The assay plate is prepared by stamping 120 nL from compound dilution plate of all different concentrations (e.g. 10 mM to have final 30 μM assay test) into a cell culture microplate, using Echo acoustic liquid handling (Labcyte, Beckman). 40 μl of cell solution is added and cells are incubated with compounds for 48 h at 37° C., 5% CO2. CTG was added to the cells (according to the manufacturer instructions) and luminescence intensity was recorded using the Pherastar plate reader (BMG).
This assay provides in vitro cellular efficacy of compounds of Formula (I) tested, measuring the C50, defined as the concentration needed to reach 50% of the cellular viability.

Row | Ki [1] [nM] | Ki ([1]; Ki determined from IC50) [nM] | SMILES | IC50 [2] [nM] | IC50 ([2]; Homo sapiens, NCI-H929, 48 h) [nM]
1 | 0.037 |  | CC1COc2cc3c(cc2OC1)[C@]1(CC[C@@](Nc2cccc(Cl)c2)(C(=O)O)CC1)[C@@H](C[C@@H](C)COc1ccnc2c1[C@H](C)CCC2)C3 (single isomer, unassigned) [Example 983] | 74.4 | 
2 | 0.0323 |  | CCC1COc2cc3c(cc2OC1)[C@]1(CC[C@@](Nc2cccc(Cl)c2)(C(=O)O)CC1)[C@@H](C[C@@H](C)COc1ccnc2c1[C@H](C)CCC2)C3 (single isomer, unassigned) [Example 988] | 204 | 
3 | 0.0288 |  | CCC1COc2cc3c(cc2OC1)[C@]1(CC[C@@](Nc2cccc(Cl)c2)(C(=O)O)CC1)[C@@H](C[C@@H](C)COc1ccnc2c1[C@H](C)CCC2)C3 (single isomer, unassigned) [Example 989] | 88.5 | 
4 | 0.0575 |  | CCCC1COc2cc3c(cc2OC1)[C@]1(CC[C@@](Nc2cccc(Cl)c2)(C(=O)O)CC1)[C@@H](C[C@@H](C)COc1ccnc2c1[C@H](C)CCC2)C3 (single isomer, unassigned) [Example 990] | 353 | 
5 | 0.0764 |  | CCCC1COc2cc3c(cc2OC1)[C@]1(CC[C@@](Nc2cccc(Cl)c2)(C(=O)O)CC1)[C@@H](C[C@@H](C)COc1ccnc2c1[C@H](C)CCC2)C3 (single isomer, unassigned) [Example 991] | 162 | 
6 | 0.0795 |  | CC(C)C1COc2cc3c(cc2OC1)[C@]1(CC[C@@](Nc2cccc(Cl)c2)(C(=O)O)CC1)[C@@H](C[C@@H](C)COc1ccnc2c1[C@H](C)CCC2)C3 (single isomer, unassigned) [Example 992] |  | 184
7 | 0.0666 |  | CC(C)C1COc2cc3c(cc2OC1)[C@]1(CC[C@@](Nc2cccc(Cl)c2)(C(=O)O)CC1)[C@@H](C[C@@H](C)COc1ccnc2c1[C@H](C)CCC2)C3 (single isomer, unassigned) [Example 993] | 143 | 
8 |  | 300 | C[C@@H](COc1ccnc2c1[C@H](C)CCC2)CN1Cc2cc3c(cc2[C@]12CC[C@](Nc1cccc(Cl)c1)(C(=O)O)CC2)OCO3 [Example 45, (1r,4R)-4-(3-chloroanilino)-6′-[(2R)-2-methyl-3-{[(5R)-5-methyl-5,6,7,8-tetrahydroquinolin-4-yl]oxy}propyl]-6′,7′-dihydro-2′H-spiro[cyclohexane-1,5′-[1,3]dioxolo[4,5-f]isoindole]-4-carboxylic acid] |  | 24200
9 |  | 104 | C[C@@H](COc1ccnc2c1[C@H](C)CCC2)CN1Cc2cc3c(cc2[C@]12CC[C@](Nc1ccc(F)c(Cl)c1)(C(=O)O)CC2)OCO3 [Example 48, (1r,4R)-4-(3-chloro-4-fluoroanilino)-6′-[(2R)-2-methyl-3-{[(5R)-5-methyl-5,6,7,8-tetrahydroquinolin-4-yl]oxy}propyl]-6′,7′-dihydro-2′H-spiro[cyclohexane-1,5′-[1,3]dioxolo[4,5-f]isoindole]-4-carboxylic acid] |  | 21500

More lines, now with the values behind:

Row | SMILES | Ki [1] [nM] | Ki ([1]; Ki determined from IC50) [nM] | IC50 [2] [nM] | IC50 ([2]; Homo sapiens, NCI-H929, 48 h) [nM]
10 | C[C@@H](COc1ccnc2c1[C@H](C)CCC2)CN1Cc2ccccc2[C@]12CC[C@@](Nc1cccc(Cl)c1)(C(=O)O)CC2 [Example 40, (1s,4S)-4-(3-chloroanilino)-2′-[(2R)-2-methyl-3-{[(5R)-5-methyl-5,6,7,8-tetrahydroquinolin-4-yl]oxy}propyl]-2′,3′-dihydrospiro[cyclohexane-1,1′-isoindole]-4-carboxylic acid] |  | 0.981 |  | 280
11 | COc1cc2c(cc1F)CN(C[C@@H](C)COc1ccnc3c1[C@H](C)CCC3)[C@]21CC[C@](Nc2cccc(Cl)c2)(C(=O)O)CC1 [Example 43, (1s,4S)-4-(3-chloroanilino)-5′-fluoro-6′-methoxy-2′-[(2R)-2-methyl-3-{[(5R)-5-methyl-5,6,7,8-tetrahydroquinolin-4-yl]oxy}propyl]-2′,3′-dihydrospiro[cyclohexane-1,1′-isoindole]-4-carboxylic acid] |  | 0.25 |  | 162
12 | COc1cc2c(cc1Cl)CN(C[C@@H](C)COc1ccnc3c1[C@H](C)CCC3)[C@]21CC[C@](Nc2cccc(Cl)c2)(C(=O)O)CC1 [Example 46, (1s,4S)-5′-chloro-4-(3-chloroanilino)-6′-methoxy-2′-[(2R)-2-methyl-3-{[(5R)-5-methyl-5,6,7,8-tetrahydroquinolin-4-yl]oxy}propyl]-2′,3′-dihydrospiro[cyclohexane-1,1′-isoindole]-4-carboxylic acid] |  | 0.255 |  | 262
13 | C[C@@H](COc1ccnc2c1[C@H](C)CCC2)CN1Cc2cc3c(cc2[C@]12CC[C@@](Nc1ccc(F)c(Cl)c1)(C(=O)O)CC2)OCO3 [Example 47, (1s,4S)-4-(3-chloro-4-fluoroanilino)-6′-[(2R)-2-methyl-3-{[(5R)-5-methyl-5,6,7,8-tetrahydroquinolin-4-yl]oxy}propyl]-6′,7′-dihydro-2′H-spiro[cyclohexane-1,5′-[1,3]dioxolo[4,5-f]isoindole]-4-carboxylic acid] |  | 0.0933 |  | 37.4
14 | Cc1c(Cl)cccc1N[C@]1(C(=O)O)CC[C@]2(CC1)c1cc3c(cc1CN2C[C@@H](C)COc1ccnc2c1[C@H](C)CCC2)OCO3 [Example 49, (1s,4S)-4-(3-chloro-2-methylanilino)-6′-[(2R)-2-methyl-3-{[(5R)-5-methyl-5,6,7,8-tetrahydroquinolin-4-yl]oxy}propyl]-6′,7′-dihydro-2′H-spiro[cyclohexane-1,5′-[1,3]dioxolo[4,5-f]isoindole]-4-carboxylic acid] |  | 0.31 |  | 242
15 | Cc1c(Cl)cccc1N[C@]1(C(=O)O)CC[C@@]2(CC1)c1cc3c(cc1CN2C[C@@H](C)COc1ccnc2c1[C@H](C)CCC2)OCO3 [Example 50, (1r,4R)-4-(3-chloro-2-methylanilino)-6′-[(2R)-2-methyl-3-{[(5R)-5-methyl-5,6,7,8-tetrahydroquinolin-4-yl]oxy}propyl]-6′,7′-dihydro-2′H-spiro[cyclohexane-1,5′-[1,3]dioxolo[4,5-f]isoindole]-4-carboxylic acid] |  | 72 |  | 13500
16 | COCc1cc2c(cc1F)CN(C[C@@H](C)COc1ccnc3c1[C@H](C)CCC3)[C@]21CC[C@](Nc2cccc(Cl)c2)(C(=O)O)CC1 [Example 51, (1s,4S)-4-(3-chloroanilino)-5′-fluoro-6′-(methoxymethyl)-2′-[(2R)-2-methyl-3-{[(5R)-5-methyl-5,6,7,8-tetrahydroquinolin-4-yl]oxy}propyl]-2′,3′-dihydrospiro[cyclohexane-1,1′-isoindole]-4-carboxylic acid] |  | 0.0762 |  | 37.7
17 | Cc1c(Cl)cccc1N[C@]1(C(=O)O)CC[C@]2(CC1)c1ccc(F)cc1CN2C[C@@H](C)COc1ccnc2c1[C@H](C)CCC2 [Example 52, (1s,4S)-4-(3-chloro-2-methylanilino)-5′-fluoro-2′-[(2R)-2-methyl-3-{[(5R)-5-methyl-5,6,7,8-tetrahydroquinolin-4-yl]oxy}propyl]-2′,3′-dihydrospiro[cyclohexane-1,1′-isoindole]-4-carboxylic acid] |  | 0.583 |  | 454
18 | Cc1ccc2c(c1)CN(C[C@@H](C)COc1ccnc3c1[C@H](C)CCC3)[C@]21CC[C@](Nc2cccc(Cl)c2C)(C(=O)O)CC1 [Example 53, (1s,4S)-4-(3-chloro-2-methylanilino)-5′-methyl-2′-[(2R)-2-methyl-3-{[(5R)-5-methyl-5,6,7,8-tetrahydroquinolin-4-yl]oxy}propyl]-2′,3′-dihydrospiro[cyclohexane-1,1′-isoindole]-4-carboxylic acid] |  | 1.5 |  | 451
